≈ marks a conversion by molar mass, not a printed value.
Tests used:
[1] = test system: Candida albicans (ATCC no. 10231); assay: MIC determination by broth microdilution (NCCLS), visual scoring; format: cell-based; conditions: for MIC80: Candida albicans, ATCC10231, read-out: MIC80 C. albicans
Experimental: The antifungal activity of the 2,4,6-pyrimidinetrione analogs shown in Schemes 2-6 were evaluated in vitro using Candida albicans (ATCC no. 10231) and Candida glabrata (ATCC no 48435). All assays were done in accordance with NCCLS reference documents^29.
(§1) Master stock concentrations of all tested compounds were prepared to ensure that the maximum final concentration of DMSO was 1% or less. Subsequent 2-fold serial dilutions were made using sterile water to a final concentration of 1280-5.00 μg/ml. A final 10-fold dilution of each drug was made by aliquotting 0.1 mL of each drug dilution into 0.9 mL of fungal suspension in RPMI 1640 media with 10 mM HEPES buffer added (see methodology below), giving final concentrations tested in the range of 128-0.5 μg/ml.
(§2) Antifungal susceptibility studies and minimal inhibitory concentrations (MIC) values for Candida albicans (ATCC no. 10231) and Candida glabrata (ATCC no. 48435) were determined by the broth microdilution technique in accordance with NCCLS reference documents. Microdilution panels ranged from 0.5 to 128 μg/mL. All organisms were subcultured on Sabouraud agar and passaged to ensure purity and viability. The initiating inocula were prepared by picking 5-7 isolated colonies ˜1 mm in diameter from freshly prepared YM agar plates. Colonies were resuspended in sterile water, vortexed and the cell density was adjusted spectrophotometrically to the transmittance of a 0.5 McFarland standard at a wavelength of 530 nm, to yield a stock suspension of 1×10^6-5×10^6 cells/mL. The stock was allowed to hydrate for 30 minutes at room temperature. A working suspension was then made by diluting the stock 1:50 with RPMI 1640 media containing HEPES buffer. The working suspension was used for all assays. The plates were incubated at 35° C. for 48-72 hours in a humid atmosphere. Growth was scored visually. MIC values are defined as the lowest concentration of agent that prevents any discernible growth, ˜80% reduction of growth, as compared with drug-free control wells. All assays were run in parallel using either fluconazole or amphotericin B at the NCCLS recommended concentrations^29 as a drug control (Sigma-Aldrich).

[2] = test system: Candida glabrata (ATCC no. 48435); assay: as above; format: cell-based; conditions: for MIC80: Nakaseomyces glabratus, ATCC48435, read-out: MIC80 C. glabrata
Experimental: The antifungal activity of the 2,4,6-pyrimidinetrione analogs shown in Schemes 2-6 were evaluated in vitro using Candida albicans (ATCC no. 10231) and Candida glabrata (ATCC no 48435). All assays were done in accordance with NCCLS reference documents^29. The results of these screenings are summarized in Tables 1-9 as the minimal inhibitory concentrations that inhibited more than 80% fungal growth as compared to the positive controls in 1% DMSO and RPMI media. All MIC screens were done using a visual scoring method as opposed to spectroscopic methods of analysis, due to the physical properties of many of the compounds altering their absorbance spectra relative to the positive, negative and drug controls.
as §1, with “None of the compounds tested over the course of these studies were soluble in water and DMSO was used to dilute each compound tested. Master” for “Master”
as §2

[3] = Table 5, Schiff Bases of 5-acylpyrimidinetriones
[4] = Table 2, 5-Arylidene-2,4,6-pyrimidinetriones
[5] = Table 7, Phenylhydrazones of 5-Acylpyrimidinetriones
[6] = Table 1, 5-Acyl-2,4,6-pyrimidinetriones, >80% growth inhibition, RPMI, 1% DMSO
[7] = Table 8, N-Acylhydrazones of 5-Acylpyrimidinetriones

COc1ccc(C(=NCCCCCC(=O)O)C2C(=O)NC(=O)NC2=O)cc1 [BA35]
MIC80 C. albicans [1, 3]: — (none of the 5-acyl-2,4,6-pyrimidinetriones, 5-alkylated pyrimidinetriones or the 5,5-dialkylated pyrimidinetriones showed antifungal activity through 125 μg/mL) | MIC80 C. glabrata [2, 3]: — (none of the 5-acyl-2,4,6-pyrimidinetriones, 5-alkylated pyrimidinetriones or the 5,5-dialkylated pyrimidinetriones showed antifungal activity through 125 μg/mL)

O=C1NC(=O)C(=Cc2cccc3ccccc23)C(=O)N1 [BA41]
MIC80 C. albicans [1, 4]: 125 µg/mL (≈ 469 µM) | MIC80 C. glabrata [2, 4]: — (none of the 5-acyl-2,4,6-pyrimidinetriones, 5-alkylated pyrimidinetriones or the 5,5-dialkylated pyrimidinetriones showed antifungal activity through 125 μg/mL)

CN1C(=O)C(C(=NNc2ccc(C(=O)O)cc2)c2ccccc2)C(=O)N(C)C1=O [BA33]
MIC80 C. albicans [1, 5]: — (none of the 5-acyl-2,4,6-pyrimidinetriones, 5-alkylated pyrimidinetriones or the 5,5-dialkylated pyrimidinetriones showed antifungal activity through 125 μg/mL) | MIC80 C. glabrata [2, 5]: — (none of the 5-acyl-2,4,6-pyrimidinetriones, 5-alkylated pyrimidinetriones or the 5,5-dialkylated pyrimidinetriones showed antifungal activity through 125 μg/mL)

CN1C(=O)C(C(=O)c2cccnc2)C(=O)N(C)C1=O [BA17]
MIC80 C. albicans [1, 6]: — (none of the 5-acyl-2,4,6-pyrimidinetriones, 5-alkylated pyrimidinetriones or the 5,5-dialkylated pyrimidinetriones showed antifungal activity through 125 μg/mL) | MIC80 C. glabrata [2, 6]: — (none of the 5-acyl-2,4,6-pyrimidinetriones, 5-alkylated pyrimidinetriones or the 5,5-dialkylated pyrimidinetriones showed antifungal activity through 125 μg/mL)

CN1C(=O)C(/C=N/Nc2ccc([N+](=O)[O-])cc2)C(=O)N(C)C1=O [BA23, 1,3-Dimethyl-5-{(E)-[2-(4-nitrophenyl)hydrazinylidene]methyl}pyrimidine-2,4,6-trione]
MIC80 [1]: 2 µg/mL (≈ 6.26 µM) | MIC80 [2]: 2 µg/mL (≈ 6.26 µM)

O=C1NC(=O)C(C=Nc2ccccc2)C(=O)N1 [BA89]
MIC80 C. albicans [1, 3]: — (none of the 5-acyl-2,4,6-pyrimidinetriones, 5-alkylated pyrimidinetriones or the 5,5-dialkylated pyrimidinetriones showed antifungal activity through 125 μg/mL) | MIC80 C. glabrata [2, 3]: — (none of the 5-acyl-2,4,6-pyrimidinetriones, 5-alkylated pyrimidinetriones or the 5,5-dialkylated pyrimidinetriones showed antifungal activity through 125 μg/mL)

CN1C(=O)C(C(=O)c2cccc([N+](=O)[O-])c2)C(=O)N(C)C1=O [BA5]
MIC80 C. albicans [1, 6]: — (none of the 5-acyl-2,4,6-pyrimidinetriones, 5-alkylated pyrimidinetriones or the 5,5-dialkylated pyrimidinetriones showed antifungal activity through 125 μg/mL) | MIC80 C. glabrata [2, 6]: — (none of the 5-acyl-2,4,6-pyrimidinetriones, 5-alkylated pyrimidinetriones or the 5,5-dialkylated pyrimidinetriones showed antifungal activity through 125 μg/mL)

CC(=O)C1C(=O)NC(=O)NC1=O [BA20]
MIC80 [1]: > 125 µg/mL | MIC80 [2]: > 125 µg/mL

CC(=Nc1ccc(O)cc1)C1C(=O)NC(=O)NC1=O [BA87]
MIC80 C. albicans [1, 3]: — (none of the 5-acyl-2,4,6-pyrimidinetriones, 5-alkylated pyrimidinetriones or the 5,5-dialkylated pyrimidinetriones showed antifungal activity through 125 μg/mL) | MIC80 C. glabrata [2, 3]: — (none of the 5-acyl-2,4,6-pyrimidinetriones, 5-alkylated pyrimidinetriones or the 5,5-dialkylated pyrimidinetriones showed antifungal activity through 125 μg/mL)

CN1C(=O)C(=Cc2ccc(N(C)C)cc2)C(=O)N(C)C1=O [BA54]
MIC80 C. albicans [1, 4]: — (none of the 5-acyl-2,4,6-pyrimidinetriones, 5-alkylated pyrimidinetriones or the 5,5-dialkylated pyrimidinetriones showed antifungal activity through 125 μg/mL) | MIC80 C. glabrata [2, 4]: — (none of the 5-acyl-2,4,6-pyrimidinetriones, 5-alkylated pyrimidinetriones or the 5,5-dialkylated pyrimidinetriones showed antifungal activity through 125 μg/mL)

O=C1NC(=O)C(/C=N/Nc2ccc([N+](=O)[O-])cc2[N+](=O)[O-])C(=O)N1 [BA24, 5-{(E)-[2-(2,4-Dinitrophenyl)hydrazinylidene]methyl}pyrimidine-2,4,6-trione]
MIC80 [1]: > 125 µg/mL | MIC80 [2]: 125 µg/mL (≈ 372 µM)

O=C1NC(=O)C(=Cc2ccc3ccccc3c2)C(=O)N1 [BA40]
MIC80 C. albicans [1, 4]: 125 µg/mL (≈ 469 µM) | MIC80 C. glabrata [2, 4]: — (none of the 5-acyl-2,4,6-pyrimidinetriones, 5-alkylated pyrimidinetriones or the 5,5-dialkylated pyrimidinetriones showed antifungal activity through 125 μg/mL)

O=C1NC(=O)C(C=Nc2ccc(O)cc2)C(=O)N1 [BA81]
MIC80 C. albicans [1, 3]: — (none of the 5-acyl-2,4,6-pyrimidinetriones, 5-alkylated pyrimidinetriones or the 5,5-dialkylated pyrimidinetriones showed antifungal activity through 125 μg/mL) | MIC80 C. glabrata [2, 3]: — (none of the 5-acyl-2,4,6-pyrimidinetriones, 5-alkylated pyrimidinetriones or the 5,5-dialkylated pyrimidinetriones showed antifungal activity through 125 μg/mL)

CN1C(=O)C(C(=O)c2ccc([N+](=O)[O-])cc2)C(=O)N(C)C1=O [BA7]
MIC80 C. albicans [1, 6]: — (none of the 5-acyl-2,4,6-pyrimidinetriones, 5-alkylated pyrimidinetriones or the 5,5-dialkylated pyrimidinetriones showed antifungal activity through 125 μg/mL) | MIC80 C. glabrata [2, 6]: — (none of the 5-acyl-2,4,6-pyrimidinetriones, 5-alkylated pyrimidinetriones or the 5,5-dialkylated pyrimidinetriones showed antifungal activity through 125 μg/mL)

O=C1NC(=O)C(/C=N/Nc2ccccc2)C(=O)N1 [BA74, 5-[(E)-(2-phenylhydrazinylidene)methyl]pyrimidine-2,4,6-trione]
MIC80 [1]: 4 µg/mL (≈ 16.2 µM) | MIC80 [2]: 2 µg/mL (≈ 8.12 µM)

C/C(=N\Nc1ccccc1)C1C(=O)NC(=O)NC1=O [BA85, 5-[(1E)-1-(2-phenylhydrazinylidene)ethyl]pyrimidine-2,4,6-trione]
MIC80 [1]: 2 µg/mL (≈ 7.68 µM) | MIC80 [2]: 2 µg/mL (≈ 7.68 µM)

O=C1NC(=O)C(C(=O)c2ccc([N+](=O)[O-])cc2)C(=O)N1 [BA6]
MIC80 C. albicans [1, 6]: — (none of the 5-acyl-2,4,6-pyrimidinetriones, 5-alkylated pyrimidinetriones or the 5,5-dialkylated pyrimidinetriones showed antifungal activity through 125 μg/mL) | MIC80 C. glabrata [2, 6]: — (none of the 5-acyl-2,4,6-pyrimidinetriones, 5-alkylated pyrimidinetriones or the 5,5-dialkylated pyrimidinetriones showed antifungal activity through 125 μg/mL)

O=C1NC(=O)C(C(=O)c2ccc(O)cc2)C(=O)N1 [BA10]
MIC80 C. albicans [1, 6]: — (none of the 5-acyl-2,4,6-pyrimidinetriones, 5-alkylated pyrimidinetriones or the 5,5-dialkylated pyrimidinetriones showed antifungal activity through 125 μg/mL) | MIC80 C. glabrata [2, 6]: — (none of the 5-acyl-2,4,6-pyrimidinetriones, 5-alkylated pyrimidinetriones or the 5,5-dialkylated pyrimidinetriones showed antifungal activity through 125 μg/mL)

COc1ccc(C=C2C(=O)N(C)C(=O)N(C)C2=O)cc1 [BA50]
MIC80 C. albicans [1, 4]: — (none of the 5-acyl-2,4,6-pyrimidinetriones, 5-alkylated pyrimidinetriones or the 5,5-dialkylated pyrimidinetriones showed antifungal activity through 125 μg/mL) | MIC80 C. glabrata [2, 4]: — (none of the 5-acyl-2,4,6-pyrimidinetriones, 5-alkylated pyrimidinetriones or the 5,5-dialkylated pyrimidinetriones showed antifungal activity through 125 μg/mL)

O=CC1C(=O)NC(=O)NC1=O [BA18]
MIC80 C. albicans [1, 6]: — (none of the 5-acyl-2,4,6-pyrimidinetriones, 5-alkylated pyrimidinetriones or the 5,5-dialkylated pyrimidinetriones showed antifungal activity through 125 μg/mL) | MIC80 C. glabrata [2, 6]: — (none of the 5-acyl-2,4,6-pyrimidinetriones, 5-alkylated pyrimidinetriones or the 5,5-dialkylated pyrimidinetriones showed antifungal activity through 125 μg/mL)

CCCCN1C(=O)NC(=O)C(C(=O)c2ccc(O)cc2)C1=O (centres unmarked) [BA12]
MIC80 C. albicans [1, 6]: — (none of the 5-acyl-2,4,6-pyrimidinetriones, 5-alkylated pyrimidinetriones or the 5,5-dialkylated pyrimidinetriones showed antifungal activity through 125 μg/mL) | MIC80 C. glabrata [2, 6]: — (none of the 5-acyl-2,4,6-pyrimidinetriones, 5-alkylated pyrimidinetriones or the 5,5-dialkylated pyrimidinetriones showed antifungal activity through 125 μg/mL)

COC(=O)NN=C(c1ccc(O)cc1)C1C(=O)N(C)C(=O)N(C)C1=O [BA36]
MIC80 C. albicans [1, 7]: — (none of the 5-acyl-2,4,6-pyrimidinetriones, 5-alkylated pyrimidinetriones or the 5,5-dialkylated pyrimidinetriones showed antifungal activity through 125 μg/mL) | MIC80 C. glabrata [2, 7]: — (none of the 5-acyl-2,4,6-pyrimidinetriones, 5-alkylated pyrimidinetriones or the 5,5-dialkylated pyrimidinetriones showed antifungal activity through 125 μg/mL)

— patent publication US20160235752A1, “COMPOSITIONS, METHODS OF USE, AND METHODS OF TREATMENT” (THE UNIVERSITY OF NEW ORLEANS, priority 2013, published 2016)
